# How the values were obtained:
# MPS1 = target: T1, MPS1 (Homo sapiens, UniProt P33981); assay: In vitro MPS1 inhibitory assay; format: biochemical
# T1 construct: purchased Abcam
# T1 sequence (P33981 1-857): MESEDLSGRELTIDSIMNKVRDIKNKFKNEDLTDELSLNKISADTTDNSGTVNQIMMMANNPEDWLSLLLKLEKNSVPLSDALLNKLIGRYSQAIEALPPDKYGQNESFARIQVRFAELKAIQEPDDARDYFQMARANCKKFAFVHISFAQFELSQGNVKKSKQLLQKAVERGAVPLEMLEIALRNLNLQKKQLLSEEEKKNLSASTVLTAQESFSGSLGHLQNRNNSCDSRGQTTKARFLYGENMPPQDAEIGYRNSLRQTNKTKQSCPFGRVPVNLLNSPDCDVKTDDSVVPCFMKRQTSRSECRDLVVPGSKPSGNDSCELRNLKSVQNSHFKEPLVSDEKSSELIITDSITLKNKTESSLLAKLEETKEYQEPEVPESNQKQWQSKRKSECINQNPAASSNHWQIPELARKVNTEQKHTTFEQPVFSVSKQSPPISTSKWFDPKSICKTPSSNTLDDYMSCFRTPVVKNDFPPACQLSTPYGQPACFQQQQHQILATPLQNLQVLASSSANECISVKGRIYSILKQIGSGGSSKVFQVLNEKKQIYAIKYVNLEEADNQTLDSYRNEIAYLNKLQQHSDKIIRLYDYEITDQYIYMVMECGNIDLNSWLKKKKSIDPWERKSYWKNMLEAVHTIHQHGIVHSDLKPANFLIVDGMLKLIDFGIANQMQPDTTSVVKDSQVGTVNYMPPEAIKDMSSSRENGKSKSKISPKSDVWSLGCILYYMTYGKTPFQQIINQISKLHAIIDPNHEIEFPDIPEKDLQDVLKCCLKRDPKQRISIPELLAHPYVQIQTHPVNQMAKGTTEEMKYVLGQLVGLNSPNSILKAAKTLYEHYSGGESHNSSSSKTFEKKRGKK
# Procedure: The methodology is as previously described ([Naud et al., 2013]). In brief, the experiment was conducted using 384-well black low-volume plates, which were loaded with MPS1 (concentration range of 3–12.5 nM), 5 μM fluorescence-labelled peptide (sequence: 5FAM-[…]-CONH2), 10 μM ATP, 1% (v/v) DMSO or the test compound (concentrations in 1% (v/v) DMSO ranged from 0.25 to 100 μM), and assay buffer. […]. The plate was read on a Caliper EZ reader II (PerkinElmer Life Sciences, Waltham, MA, United States). […]
# HDAC8 = target: T2, HDAC8 (Homo sapiens, UniProt Q9BY41); assay: In vitro HDAC8 inhibitory assay; format: biochemical; settings: 90 min at 37°C
# T2 construct: purchased Abcam
# T2 sequence (Q9BY41 1-377): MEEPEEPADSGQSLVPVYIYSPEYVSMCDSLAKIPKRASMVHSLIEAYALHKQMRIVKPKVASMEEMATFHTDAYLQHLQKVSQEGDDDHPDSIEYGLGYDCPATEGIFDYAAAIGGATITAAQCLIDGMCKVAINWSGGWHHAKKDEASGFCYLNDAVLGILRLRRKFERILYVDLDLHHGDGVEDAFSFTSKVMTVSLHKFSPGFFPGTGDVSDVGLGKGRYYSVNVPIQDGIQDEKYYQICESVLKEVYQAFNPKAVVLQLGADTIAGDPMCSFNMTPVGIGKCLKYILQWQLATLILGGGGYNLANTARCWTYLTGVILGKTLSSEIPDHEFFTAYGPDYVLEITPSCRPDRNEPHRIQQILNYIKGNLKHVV
# Procedure: Inhibition of HDAC8 was determined in 96-well plates. […] The assessment of fluorescence intensity was executed at 390 nm and 460 nm via a microplate reader.
# HepG2 liver cancer cells = assay: MTT cytotoxicity assay, HepG2; format: cell-based; settings: Homo sapiens, 72 h cell treatment
# Procedure: The cells (5 × 10^4 cells/well) were incubated overnight in 96-well plates. A series of solutions containing varying concentrations of inhibitors were added and incubated at 37°C for a period of 72 h. Subsequently, the culture medium was removed, followed by a subsequent incubation of the cells with a 5 mg/mL MTT stock solution for 4 h. After centrifugation, the precipitate was solubilized in DMSO and gently shaken for 15 min. Finally, the absorbance measurement at 570 nm was completed using a microplate reader. Data analysis was performed using GraphPad Prism 6.0 software.
smiles,measurement,setting,value
"O=C(/C=C/c1cccc(S(=O)(=O)Nc2ccccc2)c1)NO [Belinostat, reference compound]","MPS1 (IC50, nM)","MPS1; 10 μM ATP, 60 min, room temperature",No inhibition
CC1=CC(c2cc3cnc(Nc4ccc(-c5cccc[n+]5/C=C/C(=O)NO)cc4Cl)cc3n2C(=O)OC(F)(F)F)C=N1 (stereo not shown) [MPH-1],IC50,HDAC8,17.5 ± 2.32 nM
same,IC50,HepG2 liver cancer cells,0.47 µM
same,IC50,MPS1,9.38 ± 0.41 nM
COc1cc(-c2cncn2/C=C/C(=O)NO)ccc1Nc1cc2c(cn1)cc(C1C=CN=C1)n2C(=O)OC(C)(C)C (stereo not shown) [MPH-2],IC50,HDAC8,8.15 ± 0.58 nM
same,IC50,HepG2 liver cancer cells,0.32 µM
same,IC50,MPS1,7.6 ± 0.35 nM
Cc1ncc(-c2ccc(Nc3cc4c(cn3)cc(C3C=NC(C(F)(F)F)=C3)n4C(=O)OC(C)(C)C)cc2)n1/C=C/C(=O)NO (stereo not shown) [MPH-3],IC50,HDAC8,15.2 ± 1.94 nM
same,IC50,HepG2 liver cancer cells,0.55 µM
same,IC50,MPS1,13.2 ± 0.82 nM
COc1cc(-c2cnc(C)n2/C=C/C(=O)NO)ccc1Nc1cc2c(cn1)cc(C1C=CN=C1)n2C(=O)OC(F)(F)F (stereo not shown) [MPH-4],IC50,HDAC8,13.5 ± 0.61 nM
same,IC50,HepG2 liver cancer cells,0.41 µM
same,IC50,MPS1,11.7 ± 0.95 nM
CC(C)(C)OC(=O)n1c(-c2cn[nH]c2C(F)F)cc2cnc(Nc3ccc(-c4cnc(C(F)(F)F)n4/C=C/C(=O)NO)cc3Cl)cc21 [MPH-6],IC50,HDAC8,16.6 ± 2.06 nM
same,IC50,HepG2 liver cancer cells,0.53 µM
same,IC50,MPS1,10.8 ± 0.69 nM

# From publication PMC11439681, “The identification of potent dual-target monopolar spindle 1 (MPS1) and histone deacetylase 8 (HDAC8) inhibitors through pharmacophore modeling, molecular docking, molecular dynamics simulations, and biological evaluation” (Frontiers in Pharmacology, 2024)
